Source: ChEMBL document CHEMBL1201861, “Genomics of Drug Sensitity in Cancer screening data, Wellcome Trust Sanger Institute”

Tests used:
Experiment in all cases: cells
[1] = tested on: CW-2; type: functional, cell-based, Homo sapiens; conditions: Homo sapiens, CW-2;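 note: growth inhibition of CW-2 cells, read out by a cell viability assay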
Description: SANGER: Inhibition of human CW-2 cell growth in a cell viability assay.

[2] = tested on: D-502MG; type: functional, cell-based, Homo sapiens; conditions: Homo sapiens, D-502MG
Description: SANGER: Inhibition of human D-502MG cell growth in a cell viability assay.

[3] = tested on: DMS-114; type: functional, cell-based, Homo sapiens; conditions: Homo sapiens, DMS-114
[4] = tested on: EM-2; type: functional, cell-based; conditions: Homo sapiens;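 note: growth inhibition of EM-2 cells, read out with a cell viability assay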
Description: SANGER: Inhibition of human EM-2 cell growth in a cell viability assay.

[5] = tested on: ES3; type: functional, cell-based, Homo sapiens; conditions: Homo sapiens, ES3;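 note: growth inhibition of ES3 cells, read out with a cell viability assay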
Description: SANGER: Inhibition of human ES3 cell growth in a cell viability assay.

[6] = tested on: EW-3; type: functional, cell-based; conditions: Homo sapiens;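 note: cell viability assay read-out, IC50 reflects inhibition of growth of the EW-3 cells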
Description: SANGER: Inhibition of human EW-3 cell growth in a cell viability assay.

[7] = tested on: FaDu; type: functional, cell-based, Homo sapiens; conditions: Homo sapiens, FaDu;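 note: cell viability readout of growth inhibition in FaDu cells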
Description: SANGER: Inhibition of human FADU cell growth in a cell viability assay.

[8] = tested on: G-402; type: functional, cell-based, Homo sapiens; conditions: Homo sapiens, G-402
Description: SANGER: Inhibition of human G-402 cell growth in a cell viability assay.

[9] = tested on: HCC1954; type: functional, cell-based, Homo sapiens; conditions: Homo sapiens, HCC1954;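 note: growth inhibition of human HCC1954 cells, read out with a cell viability assay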
Description: SANGER: Inhibition of human HCC1954 cell growth in a cell viability assay.

[10] = tested on: HH; type: functional, cell-based; conditions: Homo sapiens
Description: SANGER: Inhibition of human HH cell growth in a cell viability assay.

[11] = tested on: HuTu80; type: functional, cell-based, Homo sapiens, HUTU-80; conditions: Homo sapiens, HuTu80;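 note: growth inhibition of HuTu80 human cells, determined with a cell viability readout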
Description: SANGER: Inhibition of human HUTU-80 cell growth in a cell viability assay.

[12] = tested on: JEG-3; type: functional, cell-based, Homo sapiens; conditions: Homo sapiens, JEG-3;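 note: growth inhibition of human JEG-3 cells, read out with a cell viability assay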
Description: SANGER: Inhibition of human JEG-3 cell growth in a cell viability assay.

[13] = tested on: KY821; type: functional, cell-based; conditions: Homo sapiens;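 note: growth inhibition of human KY821 cells, read out by a cell viability assay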
Description: SANGER: Inhibition of human KY821 cell growth in a cell viability assay.

[14] = tested on: LB831-BLC; type: functional, cell-based, Homo sapiens; conditions: Homo sapiens, LB831-BLC;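 note: growth inhibition of LB831-BLC cells, read out with a cell viability assay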
Description: SANGER: Inhibition of human LB831-BLC cell growth in a cell viability assay.

[15] = tested on: LS-1034; type: functional, cell-based, Homo sapiens; conditions: Homo sapiens, LS-1034
Description: SANGER: Inhibition of human LS-1034 cell growth in a cell viability assay.

[16] = tested on: M14; type: functional, cell-based, Homo sapiens; conditions: Homo sapiens, M14;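 note: growth inhibition of M14 cells, read out with a cell viability assay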
Description: SANGER: Inhibition of human M14 cell growth in a cell viability assay.

[17] = tested on: MDA-MB-175-VII; type: functional, cell-based, Homo sapiens; conditions: Homo sapiens, MDA-MB-175-VII
[18] = tested on: MLMA; type: functional, cell-based, Homo sapiens; conditions: Homo sapiens, MLMA;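 note: growth inhibition of MLMA cells (human), determined through a cell viability readout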
Description: SANGER: Inhibition of human MLMA cell growth in a cell viability assay.

[19] = tested on: MMAC-SF; type: functional, cell-based, Homo sapiens; conditions: Homo sapiens, MMAC-SF;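 note: growth inhibition of human MMAC-SF cells, read out with a cell viability assay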
Description: SANGER: Inhibition of human MMAC-SF cell growth in a cell viability assay.

[20] = tested on: MV4-11; type: functional, cell-based, MV-4-11; conditions: Homo sapiens;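 note: cell viability readout measuring growth inhibition of human MV-4-11 cells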
Description: SANGER: Inhibition of human MV-4-11 cell growth in a cell viability assay.

[21] = tested on: Mo; type: functional, cell-based; conditions: Homo sapiens
Description: SANGER: Inhibition of human Mo-T cell growth in a cell viability assay.

[22] = tested on: NB10; type: functional, cell-based, Homo sapiens; conditions: Homo sapiens, NB10;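 note: growth inhibition of NB10 cells, read out by a cell viability assay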
Description: SANGER: Inhibition of human NB10 cell growth in a cell viability assay.

[23] = tested on: NB13; type: functional, cell-based, Homo sapiens; conditions: Homo sapiens, NB13;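 note: cell viability readout measuring growth inhibition of human NB13 cells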
Description: SANGER: Inhibition of human NB13 cell growth in a cell viability assay.

[24] = tested on: NCI-H1092; type: functional, cell-based; conditions: Homo sapiens;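 note: cell growth inhibition measured with a cell viability assay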
Description: SANGER: Inhibition of human NCI-H1092 cell growth in a cell viability assay.

[25] = tested on: NCI-H1155; type: functional, cell-based; conditions: Homo sapiens;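 note: cell growth inhibition measured by a viability assay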
Description: SANGER: Inhibition of human NCI-H1155 cell growth in a cell viability assay.

[26] = tested on: NCI-H1437; type: functional, cell-based, Homo sapiens; conditions: Homo sapiens, NCI-H1437;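 note: growth inhibition of human NCI-H1437 cells, read out by a cell viability assay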
Description: SANGER: Inhibition of human NCI-H1437 cell growth in a cell viability assay.

[27] = tested on: NCI-H1581; type: functional, cell-based, Homo sapiens; conditions: Homo sapiens, NCI-H1581;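 note: cell growth inhibition read out by a viability assay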
Description: SANGER: Inhibition of human NCI-H1581 cell growth in a cell viability assay.

[28] = tested on: NCI-H209; type: functional, cell-based; conditions: Homo sapiens;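 note: growth inhibition of human NCI-H209 cells, measured by a cell viability assay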
Description: SANGER: Inhibition of human NCI-H209 cell growth in a cell viability assay.

[29] = tested on: NCI-H2170; type: functional, cell-based, Homo sapiens; conditions: Homo sapiens, NCI-H2170;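 note: cell viability assay measuring growth inhibition of human NCI-H2170 cancer cells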
Description: SANGER: Inhibition of human NCI-H2170 cell growth in a cell viability assay.

[30] = tested on: SNU1; type: functional, cell-based; conditions: Homo sapiens;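 note: growth inhibition of human NCI-SNU-1 cells, measured with a cell viability assay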
Description: SANGER: Inhibition of human NCI-SNU-1 cell growth in a cell viability assay.

[31] = tested on: NEC8; type: functional, cell-based, Homo sapiens; conditions: Homo sapiens, NEC8;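 note: growth inhibition of human NEC8 cells, read out by a cell viability assay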
Description: SANGER: Inhibition of human NEC8 cell growth in a cell viability assay.

[32] = tested on: OE19; type: functional, cell-based, Homo sapiens; conditions: Homo sapiens, OE19;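 note: growth inhibition of OE19 cells, measured through a cell viability read-out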
Description: SANGER: Inhibition of human OE19 cell growth in a cell viability assay.

[33] = tested on: P30-OHK; type: functional, cell-based; conditions: Homo sapiens;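 note: growth inhibition of the P30-OHK cell line, read out with a cell viability assay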
Description: SANGER: Inhibition of human P30-OHK cell growth in a cell viability assay.

[34] = tested on: PANC-03-27; type: functional, cell-based, Homo sapiens; conditions: Homo sapiens, PANC-03-27
Description: SANGER: Inhibition of human PANC-03-27 cell growth in a cell viability assay.

[35] = tested on: RCM-1; type: functional, cell-based, Homo sapiens; conditions: Homo sapiens, RCM-1;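 note: growth inhibition of the RCM-1 line, determined with a cell viability readout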
Description: SANGER: Inhibition of human RCM-1 cell growth in a cell viability assay.

[36] = tested on: Ramos-2G6-4C10; type: functional, cell-based; conditions: Homo sapiens;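 note: growth inhibition of the cell line, measured by a cell viability read-out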
Description: SANGER: Inhibition of human Ramos-2G6-4C10 cell growth in a cell viability assay.

[37] = tested on: SCC-4; type: functional, cell-based, Homo sapiens; conditions: Homo sapiens, SCC-4;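 note: growth inhibition of human SCC-4 cells, read out as cell viability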
Description: SANGER: Inhibition of human SCC-4 cell growth in a cell viability assay.

[38] = tested on: SW1463; type: functional, cell-based, Homo sapiens; conditions: Homo sapiens, SW1463;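 note: growth inhibition of SW1463 cells, determined with a cell viability assay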
Description: SANGER: Inhibition of human SW1463 cell growth in a cell viability assay.

[39] = tested on: SW-620; type: functional, cell-based, Homo sapiens; conditions: Homo sapiens, SW-620;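 note: growth inhibition of human SW-620 cells, measured by a cell viability assay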
Description: SANGER: Inhibition of human SW620 cell growth in a cell viability assay.

[40] = tested on: CWR22R; type: functional, cell-based, Homo sapiens; conditions: Homo sapiens, 22Rv1;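 note: growth inhibition of 22Rv1 cells, read out with a cell viability assay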
Description: SANGER: Inhibition of human 22RV1 cell growth in a cell viability assay.

[41] = tested on: 697; type: functional, cell-based; conditions: Homo sapiens
Description: SANGER: Inhibition of human 697 cell growth in a cell viability assay.

[42] = tested on: 8-MG-BA; type: functional, cell-based, Homo sapiens; conditions: Homo sapiens, 8-MG-BA;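 note: growth inhibition of 8-MG-BA cells, read out with a cell viability assay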
Description: SANGER: Inhibition of human 8-MG-BA cell growth in a cell viability assay.

[43] = tested on: AM-38; type: functional, cell-based, Homo sapiens; conditions: Homo sapiens, AM-38;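 note: growth inhibition of AM-38 cells of human origin, read out by a cell viability assay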
Description: SANGER: Inhibition of human AM-38 cell growth in a cell viability assay.

[44] = tested on: BE-13; type: functional, cell-based; conditions: Homo sapiens;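 note: growth inhibition of human BE-13 cells, measured with a cell viability assay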
Description: SANGER: Inhibition of human BE-13 cell growth in a cell viability assay.

[45] = tested on: BHY; type: functional, cell-based, Homo sapiens; conditions: Homo sapiens, BHY;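 note: cell growth inhibition read out by a viability assay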
Description: SANGER: Inhibition of human BHY cell growth in a cell viability assay.

[46] = tested on: BT-474; type: functional, cell-based, Homo sapiens; conditions: Homo sapiens, BT-474
Description: SANGER: Inhibition of human BT-474 cell growth in a cell viability assay.

[47] = tested on: BXPC-3; type: functional, cell-based, Homo sapiens; conditions: Homo sapiens, BXPC-3;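 note: growth inhibition of human BxPC-3 cells, read out by a cell viability assay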
Description: SANGER: Inhibition of human BxPC-3 cell growth in a cell viability assay.

[48] = tested on: C2BBe1; type: functional, cell-based, Homo sapiens; conditions: Homo sapiens, C2BBe1;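 note: growth inhibition of C2BBe1 cells, read out through a viability assay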
Description: SANGER: Inhibition of human C2BBe1 cell growth in a cell viability assay.

[49] = tested on: U-87 MG; type: functional, cell-based, U-87MG ATCC; conditions: Homo sapiens;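 note: growth inhibition of the cells measured with a viability assay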
Description: SANGER: Inhibition of human U-87-MG cell growth in a cell viability assay.

[50] = tested on: U-251; type: functional, cell-based, Homo sapiens; conditions: Homo sapiens, U-251;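 note: growth inhibition of human U-251 cells, read out through a cell viability assay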
Description: SANGER: Inhibition of human U251 cell growth in a cell viability assay.

[51] = tested on: UMC-11; type: functional, cell-based, Homo sapiens; conditions: Homo sapiens, UMC-11;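 note: growth inhibition of UMC-11 cells, read out with a cell viability assay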
Description: SANGER: Inhibition of human UMC-11 cell growth in a cell viability assay.

[52] = tested on: COLO-684; type: functional, cell-based; conditions: Homo sapiens
Description: SANGER: Inhibition of human COLO-684 cell growth in a cell viability assay.

Measured: IC50

CCOc1nc(NC(=O)Cc2cc(OC)ccc2OC)cc(N)c1C#N
> 10 µM: [1] | [2] | [3] | [4] | [5] | [6] | [7] | [8] | [9] | [10] | [11] | [12] | [13] | [14] | [15] | [16] | [17] | [18] | [19] | [20] | [21] | [22] | [23] | [24] | [25] | [26] | [27] | [28] | [29] | [30] | [31] | [32] | [33] | [34] | [35] | [36] | [37] | [38] | [39] | [40] | [41] | [42] | [43] | [44] | [45] | [46] | [47] | [48] | [49] | [50] | [51] | [52]

CC(=O)O[C@@H]1[C@@H](OC(C)=O)[C@@H](O)[C@H](Oc2c(-c3ccc(O)cc3)oc3cc(O)cc(O)c3c2=O)O[C@H]1C
> 10 µM: [1] | [2] | [3] | [4] | [5] | [6] | [7] | [8] | [9] | [10] | [11] | [12] | [13] | [14] | [15] | [16] | [17] | [18] | [19] | [20] | [21] | [22] | [23] | [24] | [25] | [26] | [27] | [28] | [29] | [30] | [31] | [32] | [33] | [34] | [35] | [36] | [37] | [38] | [39] | [40] | [41] | [42] | [43] | [44] | [45] | [46] | [47] | [48] | [49] | [50] | [51] | [52]
